Measured values reported in EP0121352A1, “A leader sequence to promote the secretion of gene products” (priority 1983, dated 1984).

Experiments:
[1] = target: Carboxypeptidase G2 (CPG2) from Pseudomonas strain RS-16 (Pseudomonas sp., UniProt P06621); settings: read-out: Km vallues using methotrexate as substrate
Protocol: (§1) CPG2 activity was determined after J L McCullough et al, J.Biol.Chem, 1971, 246, 7207. A.lml reaction cuvette containing 0.9 ml of 0.1 M Tris-HCl, pH 7.3 plus 0.2 mM ZnSO4 and 0.1 ml of 0.6 mM methotrexate was equilibrated at 37°C. Enzyme extract was added to the test cuvette and the decrease in absorbance at 320 nm measured using a Pye-Unicam SP1800 double-beam spectrophotometer. Enzyme activity per ml extract was calculated as Δ 320 nm absorbance/min divided by 8.3, which is equivalent to the hydrolysis of 1 µmol of MTX/min at 37°C.
(§2) To determine whether the cloned gene= product in E.coli had the same properties as CPG2 from the pseudomonad, enzyme was purified from E.coli carrying pNM21.

[2] = target: T1, Carboxypeptidase G2 (CPG2) purified from E.coli clone pNM21 (cloned gene from Pseudomonas species strain RS-16) (Pseudomonas sp., UniProt P06621); experiment: Km determination of purified carboxypeptidase G2 synthesised in E.coli (cloned gene product), methotrexate as substrate; format: biochemical, Pseudomonas species strain RS-16 (expressed in E.coli); settings: CPG2 purified from E.coli carrying pNM21; read-out: Km vallues using methotrexate as substrate
T1 construct: Amino acids 23 to 415 are the CPG2 structural gene; made in house; host or cells: E. coli W5445 carrying plasmid pNM21
T1 sequence (P06621 23-415): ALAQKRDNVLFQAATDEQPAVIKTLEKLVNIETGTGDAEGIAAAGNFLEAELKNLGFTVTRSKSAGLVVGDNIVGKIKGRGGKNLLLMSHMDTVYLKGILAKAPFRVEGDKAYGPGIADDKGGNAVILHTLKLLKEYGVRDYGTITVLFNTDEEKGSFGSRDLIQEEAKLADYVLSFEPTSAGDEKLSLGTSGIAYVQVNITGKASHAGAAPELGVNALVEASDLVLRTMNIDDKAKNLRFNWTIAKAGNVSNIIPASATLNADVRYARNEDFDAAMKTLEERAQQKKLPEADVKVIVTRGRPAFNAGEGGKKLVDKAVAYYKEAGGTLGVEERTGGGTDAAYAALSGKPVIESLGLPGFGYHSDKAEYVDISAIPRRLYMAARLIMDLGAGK
Protocol: as §1, §2

Chain of Carboxypeptidase G2 (CPG2) from Pseudomonas strain RS-16 (P06621 23-415): as above

With `CN(Cc1cnc2nc(N)nc(N)c2n1)c1ccc(C(=O)N[C@@H](CCC(=O)O)C(=O)O)cc1` [methotrexate] as the compound, how does the Km [1] read?
The Km was 8 µM.

What about the Km [2] of the same compound?
The Km was 7.4 µM.
